Reference: the supplement of paper PMC4862054

The compounds below were run on MFM-223 (assay: normalised viability (% of control), CellTiter-Blue; higher = more viable cells (about 100 = DMSO control)). Conditions: 100 nM; incubation time: 72 h.
Experimental: (§1)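 DSRT, CellTiter-Blue viability, 72 h incubation. Signal is normalised to DMSO and benzethonium chloride controls. Value is the normalised response at dose 3.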

Structure (SMILES) | normalised viability [%]
COC1=CC(c2cc3ccccc3[nH]2)=N/C1=C\c1[nH]c(C)cc1C [Obatoclax] | 71.7
O=c1[nH]cc(F)c(=O)[nH]1 [Fluorouracil] | 96.5
CN1CCN(c2ccc3nc(-c4c(N)c5c(F)cccc5[nH]c4=O)[nH]c3c2)CC1 [Dovitinib] | 80.2
O=c1[nH]c(=O)n([C@H]2C[C@H](O)[C@@H](CO)O2)cc1F [Floxuridine] | 92.6
O=C(c1ccc(OCCN2CCCCC2)cc1)c1c(-c2ccc(O)cc2)sc2cc(O)ccc12 [Raloxifene] | 84.3

Same assay, conditions: 1000 nM; incubation time: 72 h

Structure (SMILES) | normalised viability [%]
CS(=O)(=O)OCCCCOS(C)(=O)=O [Busulfan] | 90.3

The compounds below were run on CAL-148 in the same assay as above. Conditions: 1 nM; incubation time: 72 h.
Experimental: as §1

Structure (SMILES) | normalised viability [%]
COc1ncc(-c2ccc3nccc(-c4ccnnc4)c3c2)cc1NS(=O)(=O)c1ccc(F)cc1F | 111
Cn1c(=O)c(F)c(Nc2ccc(I)cc2F)c2c(=O)n(C[C@@H](O)CO)cnc21 [TAK-733] | 92.6
CCS(=O)(=O)c1cccc(-c2cc(C(=O)NC3CCN(C)CC3)c(C)c3[nH]c4ncc(C)cc4c23)c1 [TAK-901] | 113
COc1cccc2c1C(=O)c1c(O)c3c(c(O)c1C2=O)C[C@@](O)(C(C)=O)C[C@@H]3O[C@H]1C[C@H](N)[C@H](O)[C@H](C)O1 [Daunorubicin] | 103
CC(C)C[C@H](NC(=O)[C@H](Cc1ccccc1)NC(=O)c1cnccn1)B(O)O [Bortezomib] | 91.2

Same assay, conditions: 10 nM; incubation time: 72 h

Structure (SMILES) | normalised viability [%]
COc1cc(Nc2ncc(F)c(Nc3ccc4c(n3)NC(=O)C(C)(C)O4)n2)cc(OC)c1OC [R406] | 91.2
COC1=CC(c2cc3ccccc3[nH]2)=N/C1=C\c1[nH]c(C)cc1C [Obatoclax] | 87.7
O=c1[nH]cc(F)c(=O)[nH]1 [Fluorouracil] | 108
CN1CCN(c2ccc3nc(-c4c(N)c5c(F)cccc5[nH]c4=O)[nH]c3c2)CC1 [Dovitinib] | 94.7
O=c1[nH]c(=O)n([C@H]2C[C@H](O)[C@@H](CO)O2)cc1F [Floxuridine] | 99.8
O=C(c1ccc(OCCN2CCCCC2)cc1)c1c(-c2ccc(O)cc2)sc2cc(O)ccc12 [Raloxifene] | 100

Same assay, conditions: 100 nM; incubation time: 72 h

Structure (SMILES) | normalised viability [%]
CS(=O)(=O)OCCCCOS(C)(=O)=O [Busulfan] | 106

These compounds were tested on MDA-MB-453 in the same assay as above. Conditions: 1 nM; incubation time: 72 h.
Experimental: as §1

Structure (SMILES) | normalised viability [%]
COc1ncc(-c2ccc3nccc(-c4ccnnc4)c3c2)cc1NS(=O)(=O)c1ccc(F)cc1F | 89.3
Cn1c(=O)c(F)c(Nc2ccc(I)cc2F)c2c(=O)n(C[C@@H](O)CO)cnc21 [TAK-733] | 123
CCS(=O)(=O)c1cccc(-c2cc(C(=O)NC3CCN(C)CC3)c(C)c3[nH]c4ncc(C)cc4c23)c1 [TAK-901] | 99.1
COc1cccc2c1C(=O)c1c(O)c3c(c(O)c1C2=O)C[C@@](O)(C(C)=O)C[C@@H]3O[C@H]1C[C@H](N)[C@H](O)[C@H](C)O1 [Daunorubicin] | 103
CC(C)C[C@H](NC(=O)[C@H](Cc1ccccc1)NC(=O)c1cnccn1)B(O)O [Bortezomib] | 105

Same assay, conditions: 10 nM; incubation time: 72 h

Structure (SMILES) | normalised viability [%]
COc1cc(Nc2ncc(F)c(Nc3ccc4c(n3)NC(=O)C(C)(C)O4)n2)cc(OC)c1OC [R406] | 106
COC1=CC(c2cc3ccccc3[nH]2)=N/C1=C\c1[nH]c(C)cc1C [Obatoclax] | 80.6
O=c1[nH]cc(F)c(=O)[nH]1 [Fluorouracil] | 116
CN1CCN(c2ccc3nc(-c4c(N)c5c(F)cccc5[nH]c4=O)[nH]c3c2)CC1 [Dovitinib] | 87.7
O=c1[nH]c(=O)n([C@H]2C[C@H](O)[C@@H](CO)O2)cc1F [Floxuridine] | 98.5
O=C(c1ccc(OCCN2CCCCC2)cc1)c1c(-c2ccc(O)cc2)sc2cc(O)ccc12 [Raloxifene] | 107

Same assay, conditions: 100 nM; incubation time: 72 h

Structure (SMILES) | normalised viability [%]
CS(=O)(=O)OCCCCOS(C)(=O)=O [Busulfan] | 102

The compounds below were run on MDA-MB-436 in the same assay as above. Conditions: 10 nM; incubation time: 72 h.
Experimental: as §1

Structure (SMILES) | normalised viability [%]
COc1ncc(-c2ccc3nccc(-c4ccnnc4)c3c2)cc1NS(=O)(=O)c1ccc(F)cc1F | 83
Cn1c(=O)c(F)c(Nc2ccc(I)cc2F)c2c(=O)n(C[C@@H](O)CO)cnc21 [TAK-733] | 100
CCS(=O)(=O)c1cccc(-c2cc(C(=O)NC3CCN(C)CC3)c(C)c3[nH]c4ncc(C)cc4c23)c1 [TAK-901] | 101
COc1cccc2c1C(=O)c1c(O)c3c(c(O)c1C2=O)C[C@@](O)(C(C)=O)C[C@@H]3O[C@H]1C[C@H](N)[C@H](O)[C@H](C)O1 [Daunorubicin] | 92.1
CC(C)C[C@H](NC(=O)[C@H](Cc1ccccc1)NC(=O)c1cnccn1)B(O)O [Bortezomib] | 98.9

Same assay, conditions: 100 nM; incubation time: 72 h

Structure (SMILES) | normalised viability [%]
COc1cc(Nc2ncc(F)c(Nc3ccc4c(n3)NC(=O)C(C)(C)O4)n2)cc(OC)c1OC [R406] | 96.1
COC1=CC(c2cc3ccccc3[nH]2)=N/C1=C\c1[nH]c(C)cc1C [Obatoclax] | 58.7
O=c1[nH]cc(F)c(=O)[nH]1 [Fluorouracil] | 89.1
CN1CCN(c2ccc3nc(-c4c(N)c5c(F)cccc5[nH]c4=O)[nH]c3c2)CC1 [Dovitinib] | 99.7
O=c1[nH]c(=O)n([C@H]2C[C@H](O)[C@@H](CO)O2)cc1F [Floxuridine] | 72.6
O=C(c1ccc(OCCN2CCCCC2)cc1)c1c(-c2ccc(O)cc2)sc2cc(O)ccc12 [Raloxifene] | 107

Same assay, conditions: 1000 nM; incubation time: 72 h

Structure (SMILES) | normalised viability [%]
CS(=O)(=O)OCCCCOS(C)(=O)=O [Busulfan] | 93.3
